# PubChem BioAssay AID1745844 (Carcinogenic Potency Database (CPDB), 2022)
# Where “and” joins values, the source holds several entries; their conditions need not be identical. Equal values may be shown once. Calls of active or inactive are those of the source. How the calls were made is not given here.
# Test system: rodent lifetime carcinogenesis bioassay, tumor incidence TD50
# Assay: chronic cancer bioassays in animals – CPDB, compiled studies (AID 1745844)
structure (smiles),measurement,setting,value
CC1CCC(C(C)C)C(O)C1 (stereo not given),carcinogen call,"mouse, strain B6C3F1, females, in feed, site: any site (literature study), lesion: several types, types named in the paper, dosed 103 weeks, study length 104 weeks",negative (inactive)
same,TD50,"mouse, strain B6C3F1, females, in feed, site: liver, lesion: hepatocellular adenoma + hepatocellular carcinoma + neoplastic nodule, dosed 103 weeks, study length 104 weeks",5190 mg/kg/day
same,TD50,"mouse, strain B6C3F1, females, in feed, site: lung, lesion: alveolar/bronchiolar adenoma + alveolar/bronchiolar carcinoma, dosed 103 weeks, study length 104 weeks",3170 mg/kg/day
same,TD50,"mouse, strain B6C3F1, males, in feed, site: any site (literature study), lesion: several types, types named in the paper, dosed 103 weeks, study length 104 weeks",2750 mg/kg/day (inactive)
same,TD50,"mouse, strain B6C3F1, males, in feed, site: liver, lesion: hepatocellular adenoma + hepatocellular carcinoma + neoplastic nodule, dosed 103 weeks, study length 104 weeks",1960 mg/kg/day
same,carcinogen call,"rat, strain Fischer 344, females, in feed, site: any site (literature study), lesion: several types, types named in the paper, dosed 103 weeks, study length 105 weeks",negative (inactive)
same,TD50,"rat, strain Fischer 344, males, in feed, site: any site (literature study), lesion: several types, types named in the paper, dosed 103 weeks, study length 105 weeks",1410 mg/kg/day (inactive)
same,TD50,"rat, strain Fischer 344, males, in feed, site: liver, lesion: hepatocellular adenoma + hepatocellular carcinoma + neoplastic nodule, dosed 103 weeks, study length 105 weeks",5690 mg/kg/day
CCc1ccccc1,TD50,"mouse, strain B6C3F1, females, inhaled, site: Harderian gland, lesion: adenoma, dosed 103 weeks, study length 104 weeks",9070 mg/kg/day
same,TD50,"mouse, strain B6C3F1, females, inhaled, site: any site (literature study), lesion: several types, types named in the paper, dosed 103 weeks, study length 104 weeks",4070 mg/kg/day
same,TD50,"mouse, strain B6C3F1, females, inhaled, site: liver, lesion: hepatocellular adenoma + hepatoblastoma + hepatocellular carcinoma, dosed 103 weeks, study length 104 weeks",1880 mg/kg/day
same,TD50,"mouse, strain B6C3F1, females, inhaled, site: liver, lesion: hepatocellular adenoma + hepatocellular carcinoma, dosed 103 weeks, study length 104 weeks",1880 mg/kg/day
same,TD50,"mouse, strain B6C3F1, females, inhaled, site: liver, lesion: hepatocellular adenoma, dosed 103 weeks, study length 104 weeks",2450 mg/kg/day
same,TD50,"mouse, strain B6C3F1, females, inhaled, site: lung, lesion: alveolar/bronchiolar adenoma + alveolar/bronchiolar carcinoma, dosed 103 weeks, study length 104 weeks",7950 mg/kg/day
same,TD50,"mouse, strain B6C3F1, males, inhaled, site: any site (literature study), lesion: several types, types named in the paper, dosed 103 weeks, study length 104 weeks",2010 mg/kg/day
same,TD50,"mouse, strain B6C3F1, males, inhaled, site: liver, lesion: hepatocellular adenoma + hepatoblastoma + hepatocellular carcinoma, dosed 103 weeks, study length 104 weeks",9310 mg/kg/day
same,TD50,"mouse, strain B6C3F1, males, inhaled, site: lung, lesion: alveolar/bronchiolar adenoma + alveolar/bronchiolar carcinoma, dosed 103 weeks, study length 104 weeks",1400 mg/kg/day
same,TD50,"mouse, strain B6C3F1, males, inhaled, site: lung, lesion: alveolar/bronchiolar adenoma, dosed 103 weeks, study length 104 weeks",1680 mg/kg/day
same,TD50,"rat, strain Fischer 344, males, inhaled, site: adrenal medulla, lesion: pheochromocytoma benign, bilateral + pheochromocytoma, benign, dosed 104 weeks, study length 104 weeks",125 mg/kg/day
same,TD50,"rat, strain Fischer 344, males, inhaled, site: adrenal medulla, lesion: pheochromocytoma benign, bilateral + pheochromocytoma, malignant + pheochromocytoma, benign, dosed 104 weeks, study length 104 weeks",106 mg/kg/day
same,TD50,"rat, strain Fischer 344, males, inhaled, site: any site (literature study), lesion: several types, types named in the paper, dosed 104 weeks, study length 104 weeks",53 mg/kg/day
same,TD50,"rat, strain Fischer 344, males, inhaled, site: kidney + testis, lesion: tubule adenoma + tubule carcinoma + interstitial-cell adenoma, bilateral + interstitial-cell adenoma, dosed 104 weeks, study length 104 weeks",24.6 mg/kg/day
same,TD50,"rat, strain Fischer 344, males, inhaled, site: kidney, lesion: tubule adenoma + tubule carcinoma, dosed 104 weeks, study length 104 weeks",147 mg/kg/day and 255 mg/kg/day
same,TD50,"rat, strain Fischer 344, males, inhaled, site: kidney, lesion: tubule adenoma, dosed 104 weeks, study length 104 weeks",232 mg/kg/day and 280 mg/kg/day
same,TD50,"rat, strain Fischer 344, males, inhaled, site: testis, lesion: interstitial-cell adenoma, bilateral + interstitial-cell adenoma, dosed 104 weeks, study length 104 weeks",24.8 mg/kg/day
same,TD50,"rat, strain Fischer 344, males, inhaled, site: testis, lesion: interstitial-cell adenoma, bilateral, dosed 104 weeks, study length 104 weeks",23.1 mg/kg/day
same,TD50,"rat, strain Sprague-Dawley, females, by gavage, site: any site (literature study), lesion: malignant tumor, dosed 104 weeks, study length 123 weeks",1610 mg/kg/day
same,TD50,"rat, strain Sprague-Dawley, females, by gavage, site: any site (literature study), lesion: malignant tumor, dosed 104 weeks, study length 141 weeks",1210 mg/kg/day
same,TD50,"rat, strain Sprague-Dawley, females, by gavage, site: any site (literature study), lesion: several types, types named in the paper, dosed 104 weeks, study length 141 weeks",635 mg/kg/day
same,TD50,"rat, strain Sprague-Dawley, females, by gavage, site: head, lesion: carcinoma, dosed 104 weeks, study length 123 weeks",4170 mg/kg/day
same,TD50,"rat, strain Sprague-Dawley, females, by gavage, site: nasal cavity, lesion: carcinoma, dosed 104 weeks, study length 123 weeks",18300 mg/kg/day
same,TD50,"rat, strain Sprague-Dawley, females, by gavage, site: nasal cavity, lesion: esthesioneuroepithelioma, dosed 104 weeks, study length 123 weeks",18300 mg/kg/day
same,TD50,"rat, strain Sprague-Dawley, females, by gavage, site: oral cavity, lesion: carcinoma, dosed 104 weeks, study length 123 weeks",8890 mg/kg/day
same,TD50,"rat, strain Sprague-Dawley, males, by gavage, site: any site (literature study), lesion: malignant tumor, dosed 104 weeks, study length 141 weeks",1980 mg/kg/day
same,TD50,"rat, strain Sprague-Dawley, males, by gavage, site: any site (literature study), lesion: several types, types named in the paper, dosed 104 weeks, study length 141 weeks",1160 mg/kg/day
same,TD50,"rat, strain Sprague-Dawley, males, by gavage, site: ear duct, lesion: carcinoma, dosed 104 weeks, study length 123 weeks",18300 mg/kg/day
same,TD50,"rat, strain Sprague-Dawley, males, by gavage, site: head, lesion: carcinoma, dosed 104 weeks, study length 123 weeks",4350 mg/kg/day
same,TD50,"rat, strain Sprague-Dawley, males, by gavage, site: nasal cavity, lesion: esthesioneuroepithelioma, dosed 104 weeks, study length 123 weeks",5990 mg/kg/day
same,TD50,"rat, strain Sprague-Dawley, males, by gavage, site: oral cavity, lesion: carcinoma, dosed 104 weeks, study length 123 weeks",18300 mg/kg/day
NC(=O)N/N=C/c1ccco1,TD50,"rat, strain Sprague-Dawley, females, in feed, site: mammary gland, lesion: fibroadenoma, dosed 46 weeks, study length 66 weeks",48.8 mg/kg/day (inactive)
ClCOCc1ccc(COCCl)cc1,TD50,"mouse, strain Ha/ICR, females, i.p., site: abdomen, lesion: sarcoma, dosed 77 weeks, study length 77 weeks",3.11 mg/kg/day
Nc1ccc(Nc2ccccc2)cc1,carcinogen call,"mouse, strain B6C3F1, females, in feed, site: any site (literature study), lesion: several types, types named in the paper, dosed 48 weeks, study length 91 weeks",negative (inactive)
same,carcinogen call,"mouse, strain B6C3F1, males, in feed, site: any site (literature study), lesion: several types, types named in the paper, dosed 48 weeks, study length 91 weeks",negative (inactive)
same,TD50,"mouse, strain B6C3F1, males, in feed, site: liver, lesion: hepatocellular adenoma + hepatocellular carcinoma + neoplastic nodule, dosed 48 weeks, study length 91 weeks",213 mg/kg/day
same,carcinogen call,"rat, strain Fischer 344, females, in feed, site: any site (literature study), lesion: several types, types named in the paper, dosed 78 weeks, study length 104 weeks",negative (inactive)
same,TD50,"rat, strain Fischer 344, males, in feed, site: any site (literature study), lesion: several types, types named in the paper, dosed 78 weeks, study length 104 weeks",161 mg/kg/day (inactive)
C[C@]12CC[C@@H]3c4ccc(OC(=O)Cc5ccc(N(CCCl)CCCl)cc5)cc4CC[C@H]3[C@@H]1CC[C@@H]2OC(=O)Cc1ccc(N(CCCl)CCCl)cc1,TD50,"mouse, strain B6C3F1, females, by gavage, site: all sites + lung + myocardium + stomach, lesion: lymphoma + alveolar/bronchiolar adenoma + alveolar/bronchiolar carcinoma + sarcoma, NOS + squamous-cell carcinoma, dosed 52 weeks, study length 84 weeks",0.682 mg/kg/day
same,TD50,"mouse, strain B6C3F1, females, by gavage, site: all sites, lesion: lymphoma, dosed 52 weeks, study length 82 weeks",2.23 mg/kg/day
same,TD50,"mouse, strain B6C3F1, females, by gavage, site: all sites, lesion: lymphoma, dosed 52 weeks, study length 84 weeks",2.34 mg/kg/day
same,TD50,"mouse, strain B6C3F1, females, by gavage, site: any site (literature study), lesion: several types, types named in the paper, dosed 52 weeks, study length 84 weeks",0.562 mg/kg/day
same,TD50,"mouse, strain B6C3F1, females, by gavage, site: lung, lesion: alveolar/bronchiolar adenoma + alveolar/bronchiolar carcinoma, dosed 52 weeks, study length 82 weeks",1.28 mg/kg/day
same,TD50,"mouse, strain B6C3F1, females, by gavage, site: lung, lesion: alveolar/bronchiolar adenoma + alveolar/bronchiolar carcinoma, dosed 52 weeks, study length 84 weeks",1.14 mg/kg/day
same,TD50,"mouse, strain B6C3F1, females, by gavage, site: lung, lesion: alveolar/bronchiolar carcinoma, dosed 52 weeks, study length 82 weeks",2.87 mg/kg/day
same,TD50,"mouse, strain B6C3F1, females, by gavage, site: mammary gland, lesion: adenocarcinoma, NOS + carcinoma, NOS, dosed 52 weeks, study length 82 weeks",12.8 mg/kg/day
same,TD50,"mouse, strain B6C3F1, females, by gavage, site: mammary gland, lesion: adenocarcinoma, NOS + carcinoma, NOS, dosed 52 weeks, study length 84 weeks",13.4 mg/kg/day
same,TD50,"mouse, strain B6C3F1, females, by gavage, site: myocardium, lesion: sarcoma, NOS, dosed 52 weeks, study length 82 weeks",3.22 mg/kg/day
same,TD50,"mouse, strain B6C3F1, females, by gavage, site: myocardium, lesion: sarcoma, NOS, dosed 52 weeks, study length 84 weeks",3.01 mg/kg/day
same,TD50,"mouse, strain B6C3F1, females, by gavage, site: stomach, lesion: squamous-cell carcinoma, dosed 52 weeks, study length 84 weeks",5.17 mg/kg/day
same,TD50,"mouse, strain B6C3F1, males, by gavage, site: all sites + stomach, lesion: leukemia + lymphoma + squamous-cell carcinoma, dosed 52 weeks, study length 83 weeks",4.1 mg/kg/day
same,TD50,"mouse, strain B6C3F1, males, by gavage, site: all sites, lesion: leukemia + lymphoma, dosed 52 weeks, study length 81 weeks",4.31 mg/kg/day
same,TD50,"mouse, strain B6C3F1, males, by gavage, site: all sites, lesion: leukemia + lymphoma, dosed 52 weeks, study length 83 weeks",4.39 mg/kg/day
same,TD50,"mouse, strain B6C3F1, males, by gavage, site: any site (literature study), lesion: several types, types named in the paper, dosed 52 weeks, study length 83 weeks",1.96 mg/kg/day
same,TD50,"mouse, strain B6C3F1, males, by gavage, site: lung, lesion: alveolar/bronchiolar adenoma + alveolar/bronchiolar carcinoma, dosed 52 weeks, study length 81 weeks",1.99 mg/kg/day
same,TD50,"mouse, strain B6C3F1, males, by gavage, site: lung, lesion: alveolar/bronchiolar adenoma + alveolar/bronchiolar carcinoma, dosed 52 weeks, study length 83 weeks",2.34 mg/kg/day
same,TD50,"mouse, strain B6C3F1, males, by gavage, site: lung, lesion: alveolar/bronchiolar carcinoma, dosed 52 weeks, study length 81 weeks",3.61 mg/kg/day
same,TD50,"mouse, strain B6C3F1, males, by gavage, site: myocardium, lesion: sarcoma, NOS, dosed 52 weeks, study length 81 weeks",5.55 mg/kg/day
same,TD50,"mouse, strain B6C3F1, males, by gavage, site: stomach, lesion: squamous-cell carcinoma, dosed 52 weeks, study length 83 weeks",29 mg/kg/day
same,TD50,"rat, strain Sprague-Dawley, females, by gavage, site: any site (literature study), lesion: several types, types named in the paper, dosed 52 weeks, study length 85 weeks",0.189 mg/kg/day (inactive)
same,TD50,"rat, strain Sprague-Dawley, males, by gavage, site: any site (literature study), lesion: several types, types named in the paper, dosed 52 weeks, study length 85 weeks",3.85 mg/kg/day (inactive)
same,TD50,"rat, strain Sprague-Dawley, males, by gavage, site: mammary gland, lesion: fibroadenoma, dosed 52 weeks, study length 85 weeks",0.756 mg/kg/day (inactive)
